Reference: ChEMBL document CHEMBL1138167, “Asymmetric synthesis of the L-fuco-nojirimycin, a nanomolar alpha-L-fucosidase inhibitor” (Bioorg Med Chem Lett, 2006)

Target: T1, Tissue alpha-L-fucosidase (Bos taurus, UniProt Q2KIM0)
T1 sequence (Q2KIM0 whole entry): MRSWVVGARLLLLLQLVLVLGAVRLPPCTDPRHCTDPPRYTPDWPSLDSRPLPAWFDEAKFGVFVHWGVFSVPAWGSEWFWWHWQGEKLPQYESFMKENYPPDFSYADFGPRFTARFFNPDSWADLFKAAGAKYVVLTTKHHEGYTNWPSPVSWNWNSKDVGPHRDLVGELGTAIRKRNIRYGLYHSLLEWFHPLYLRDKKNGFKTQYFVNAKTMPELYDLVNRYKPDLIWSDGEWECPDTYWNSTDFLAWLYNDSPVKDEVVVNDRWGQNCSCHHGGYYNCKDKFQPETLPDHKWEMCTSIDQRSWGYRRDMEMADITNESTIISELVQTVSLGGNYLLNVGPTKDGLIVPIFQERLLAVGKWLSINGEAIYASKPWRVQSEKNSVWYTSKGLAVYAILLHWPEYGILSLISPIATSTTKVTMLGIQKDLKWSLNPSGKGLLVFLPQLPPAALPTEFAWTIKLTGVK
Test: Inhibition of bovine alpha-L-fucosidase

Row | SMILES | Ki [nM] | IC50 [nM]
1 | C[C@H]1N[C@@H](S(=O)(=O)O)[C@H](O)[C@@H](O)[C@H]1O | 13000 | –
2 | C[C@H]1NC(O)[C@H](O)[C@@H](O)[C@H]1O (some centres not stated) | 3000 | –
3 | C[C@H]1NC[C@H](O)[C@@H](O)[C@H]1O | 660000 | –
4 | C[C@@H]1NC(O)[C@@H](O)[C@H](O)[C@@H]1O (some centres not stated) | 1 | –
5 | C[C@@H]1N[C@H](S(=O)(=O)O)[C@@H](O)[C@H](O)[C@@H]1O | 1 | –
6 | C[C@@H]1NC[C@@H](O)[C@H](O)[C@@H]1O [DEOXYFUCONOJIRIMYCIN] | 3 | 5
